In US20150225380A1, “Novel Method to Obtain Olmesartan Medoxomil With Reduced Particle Size” (LUPIN LIMITED, priority 2012, published 2015):

Assays:
[1] = Particle size distribution, Malvern Hydro2000S (A); assay type: physicochemical; conditions: crystals of Example 1, seeded crystallisation from acetone, no milling
Protocol: The particle size distribution of olmesartan medoxomil (I) is measured utilizing: Instrument model: Malvern; Dispersion unit: Hydro2000S (A); Particle refraction index of sample: 1.427; Absorption: 0.1; Dispersant refraction index: 1.468 and Size range: 0.020-2000 μm.

[2] = Minimum ignition energy and powder resistivity of the powder; assay type: physicochemical; conditions: observed by the present inventors; process safety for milling

particle size distribution d10 [1]: 0.984 μm
particle size distribution d50 [1]: 8.484 μm
particle size distribution d90 [1]: 18.756 μm
Compound: CCCc1nc(C(C)(C)O)c(C(=O)OCc2oc(=O)oc2C)n1Cc1ccc(-c2ccccc2-c2nnn[nH]2)cc1 [olmesartan medoxomil, 4-(1-hydroxy-1-methylethyl)-2-propyl-1-[[2′-(1H-tetrazol-5-yl) [1, 1′-biphenyl]-4-yl]methyl]-1H-imidazole-5-carboxylic acid (5-methyl-2-oxo-1,3-dioxol-4-yl)methyl ester]
minimum ignition energy [2]: less than 3 mJ
powder resistivity [2]: very high
